Measured values reported in patent US7745476B2, “1,3,5-trisubstituted 4,5-dihydro-1H-pyrazole derivatives having CB1-antagonistic activity” (Solvay Pharmaceuticals B.V., priority 2004, dated 2010).

Assays:
[1] = biological target: human cannabinoid CB1 receptor (Homo sapiens, UniProt P21554); test: In vitro affinity for cannabinoid-CB1 receptors ([3H]CP-55,940 radioligand binding, CHO cell membranes); conditions: read-out: In vitro affinity pKi value (converted)
Description: The affinity of the compounds of the invention for cannabinoid CB1 receptors can be determined using membrane preparations of Chinese hamster ovary (CHO) cells in which the human cannabinoid CB1 receptor is stably transfected in conjunction with [^3H]CP-55,940 as radioligand. After incubation of a freshly prepared cell membrane preparation with the [^3H]-ligand, with or without addition of compounds of the invention, separation of bound and free ligand is performed by filtration over glassfiber filters. Radioactivity on the filter is measured by liquid scintillation counting.

human CB1 receptor = human CB1 receptor (Homo sapiens, UniProt P21554); test: In vitro cannabinoid-CB1 receptor antagonism (WIN 55,212-2-induced [3H]-arachidonic acid release in CHO cells); assay type: cell-based; conditions: 10^−6M
Chain of human CB1 receptor (P21554 whole entry): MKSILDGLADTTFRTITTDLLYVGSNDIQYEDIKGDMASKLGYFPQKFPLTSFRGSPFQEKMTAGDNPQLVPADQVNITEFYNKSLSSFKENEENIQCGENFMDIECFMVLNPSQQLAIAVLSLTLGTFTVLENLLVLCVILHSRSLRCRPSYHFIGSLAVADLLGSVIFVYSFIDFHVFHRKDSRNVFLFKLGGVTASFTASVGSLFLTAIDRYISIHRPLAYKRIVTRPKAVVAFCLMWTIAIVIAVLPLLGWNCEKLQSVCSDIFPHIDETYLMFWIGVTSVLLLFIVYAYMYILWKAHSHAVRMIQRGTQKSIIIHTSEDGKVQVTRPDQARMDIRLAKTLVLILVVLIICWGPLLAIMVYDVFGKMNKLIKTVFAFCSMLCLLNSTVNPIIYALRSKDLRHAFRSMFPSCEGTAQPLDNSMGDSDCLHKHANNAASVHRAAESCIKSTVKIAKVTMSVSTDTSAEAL
Description: In vitro CB1 receptor antagonism can be assessed with the human CB1 receptor cloned in Chinese hamster ovary (CHO) cells. CHO cells are grown in a Dulbecco's Modified Eagle's medium (DMEM) culture medium, supplemented with 10% heat-inactivated fetal calf serum. Medium is aspirated and replaced by DMEM, without fetal calf serum, but containing [^3H]-arachidonic acid and incubated overnight in a cell culture stove (5% CO2/95% air; 37° C.; water-saturated atmosphere). During this period [^3H]-arachidonic acid is incorporated in membrane phospholipids. On the test day, medium is aspirated and cells are washed three times using 0.5 ml DMEM, containing 0.2% bovine serum albumin (BSA). Stimulation of the CB1 receptor by WIN 55,212-2 leads to activation of PLA2 followed by release of [^3H]-arachidonic acid into the medium. This WIN 55,212-2-induced release is concentration-dependently antagonized by CB1 receptor antagonists.

Chain of human cannabinoid CB1 receptor (P21554 whole entry): as above

Row | SMILES | melting point | Ki [1] | inhibition at 1 µM (human CB1 receptor)
1 | N/C(=N\S(=O)(=O)c1ccc(F)cc1)C1=NN(c2ccc(Cl)cc2)C(c2ccccc2)C1 (stereo not shown) [Compound 5, N-[(4-fluorophenyl)sulfonyl]-1-(4-chlorophenyl)-5-phenyl-4,5-dihydro-(1H)-pyrazole-3-carboxamidine] | 200 to 203.5 °C |  | 
2 | N/C(=N\S(=O)(=O)c1ccc(F)cc1)C1=NN(c2ccc(Cl)cc2Cl)C(c2ccccc2)C1 (stereo not shown) [Compound 6, N-[(4-fluorophenyl)sulfonyl]-1-(2,4-dichlorophenyl)-5-phenyl-4,5-dihydro-(1H)-pyrazole-3-carboxamidine] | 167 to 169.5 °C |  | 
3 | CNC(=NS(=O)(=O)N1CCCCC1)C1=NN(c2ccc(Cl)cc2)C(c2ccccc2)C1 (stereo not shown) [Compound 10, N-[(piperidin-1-yl)sulfonyl]-N′-methyl-1-(4-chlorophenyl)-5-phenyl-4,5-dihydro-(1H)-pyrazole-3-carboxamidine] |  | 79.4 nM | 79%

Second part, the compound after the results:

Row | melting point | Ki [1] | inhibition at 1 µM (human CB1 receptor) | SMILES
4 | 160 to 163.5 °C |  |  | O=C(NC1CCCCC1)C1=NN(c2ccc(Cl)cc2Cl)C(c2ccccc2)C1 (stereo not shown)
5 | 189 to 192 °C |  |  | O=C(NN1CCCCC1)C1=NN(c2ccc(Cl)cc2)C(c2ccccc2)C1 (stereo not shown) [Compound 1, N-(piperidin-1-yl)-1-(4-chlorophenyl)-5-phenyl-4,5-dihydro-(1H)-pyrazole-3-carboxamide]
6 | 163 to 165 °C | 25.1 nM | 98% | O=C(NN1CCCCC1)C1=NN(c2ccc(Cl)cc2Cl)C(c2ccccc2)C1 (stereo not shown) [Compound 3, N-(Piperidin-1-yl)-1-(2,4-dichlorophenyl)-5-phenyl-4,5-dihydro-(1H)-pyrazole-3-carboxamide]
7 | 161 to 165 °C |  |  | CN/C(=N\S(=O)(=O)N1CCOCC1)C1=NN(c2ccc(Cl)cc2Cl)C(c2ccccc2)C1 (stereo not shown) [Compound 11, N-[(Morpholin-4-yl)sulfonyl]-N′-methyl-1-(2,4-dichlorophenyl)-5-phenyl-4,5-dihydro-(1H)-pyrazole-3-carboxamidine]
